# Assay results as given in patent US20150329582A1, “SMALL MOLECULE COMPOUNDS SELECTIVE AGAINST GRAM-NEGATIVE BACTERIAL INFECTIONS” (priority 2014, published 2015).
# Assays:
# [1] = tested on: 30S rRNA ribosomal mutant, A1408G; test: Error frequency assay with 30S rRNA ribosomal mutant; type: biochemical; conditions: increasing concentrations of Mangrolide A
# Experimental: (§1) The error frequency assay was conducted to determine whether a 30S rRNA ribosomal mutant, A1408G is susceptible to Mangrolide A. The mutation site is shown in FIG. 8A. […] (FIG. 8B) When wild type or A1408G (S30) mutant bacteria were grown in wells of a microwell plate containing no additions (No—negative control), Ampicillin or Tetracyclin in the presence or absence of Mangrolide A, A1408G (S30) mutants proliferated similarly to the proliferation of wild type bacteria grown in the absence of Mangrolide A. (FIG. 8C).
# Bacillus subtillis = test: Minimal Inhibitory Concentration (MIC) test; type: cell-based; conditions: Gram positive
# [2] = tested on: S-30 extract from E. coli (30S ribosomal extract); test: Error frequency in vitro protein synthesis assay (amino acid misincorporation); type: biochemical; conditions: increasing concentrations (μM) of Mangrolide A, 14C-phenylalanine / 3H-leucine incorporation
# Experimental: Error Frequency In Vitro Protein Synthesis Assay Using Natural mRNA
# 72 mM Tris-hydrochloride pH 7.5, 72 mM NH4Cl, 12 mM magnesium acetate, 2.4 mM dithiothreitol (Sigma Co.), 2 mM adenosine triphosphate (ATP), 0.1 mM guanosine triphosphate (GTP), 5 mM phosphoenolpyruvate (Sigma Co.), 20 ug of pyruvate kinase (Sigma Co.) per mL, a mixture of 19 amino acids (each at 72 uM), 13 uM [^14C]leucine (50 counts/min per picomole), 50 ug of calcium folinate (S.P.E.C.I.A., Paris, France) per mL, 0.2 mM DFP, and 0.6 mM Mg Titriplex in a final volume of 0.125 mL per tube. mRNA (1300 μg), an S-30 extract from E. coli (200 μg), or ribosomes plus S-150 (200 μg) and crude initiation factors were added. Incubations were for 30 minutes at 37° C. The extent of amino acid incorporation was determined by measuring the radioactivity remaining insoluble after treatment with hot trichloroacetic acid (90° C. for 15 min). To reduce endogenous mRNA, ribosomes plus 5-150 or S-30 extracts were preincubated just prior to use at 37° C. for 15 min in the reaction mixture described above without [^14C]leucine, the energy generating system and added mRNA.
# Assay for Polyuridylic Acid [Poly(U)]-Directed-Polyphenylalanine Synthesis. […]
# [3] = tested on: E. coli expressing neomycin phosphotransferase-1 (NPT); test: Poly(U)-directed polyphenylalanine synthesis, with or without neomycin phosphotransferase-1; type: cell-based; conditions: for antibiotic activity against E. coli expressing NPT: E. coli transformed with resistance plasmid expressing neomycin phosphotransferase-1
# Experimental: Assay for Polyuridylic Acid [Poly(U)]-Directed-Polyphenylalanine Synthesis.
# The reaction mixture contained 400 ug of E. coli B transfer RNA (General Biochemicals, Chagrin Falls, Ohio) per mL, 5 mM spermidine, and [^14C]leucine was replaced with 13 μM [^14C]phenylalanine ([…]). A poly(UUU) RNA template [5′-[…](UUU)12UAAGCAGG-3′ (SEQ ID NO: 1) was used at a concentration of 100 ug per assay. (Legault-Demare and Chambliss, Journal of Bacteriology, 1974, 120(3): 1300-1307).
# The assay for polyuridylic acid [poly(U)]-directed-polyphenylalanine synthesis was conducted in the presence or absence of neomycin phosphotransferase-1 (NPT). Wild type E. coli and E. coli transformed with a resistance plasmid expressing neomycin phosphotransferase-1 (NPT) were treated with Mangrolide A and translational error frequency determined.
# [4] = tested on: Gram-negative bacterial pathogens (Burkholderia cenocepacia J2315, Burkholderia cenocepacia, Pseudomonas aeruginosa PAO1, Acinetobacter baumannii BAA-1793 and …); test: Minimal Inhibitory Concentration (MIC) test; type: cell-based
# Experimental: Minimal Inhibitory Concentration (MIC) Test
# The MIC test was performed by adding 2.0 mL of an antibiotic solution (100 ug/mL) to the first tube (out of, e.g., 9 tubes). 1.0 mL of sterile broth was added to all other tubes. 1.0 mL was transferred from the first tube to the second tube. Using a separate pipette, the contents of this tube were mixed and 1.0 mL was transferred to the third tube. Dilutions were continued in this manner through tube number 8. 1.0 mL was removed from tube 8 and discarded. […] Colonies of the culture were suspended to an appropriate turbidity to be tested in 5.0 mL of Mueller-Hinton broth to give a slightly turbid suspension. This suspension was diluted by aseptically pipetting 0.2 mL of the suspension into 40 mL of Mueller-Hinton broth. 1.0 mL of the diluted culture suspension was added to each of the tubes. The final concentration of the antibiotic was one-half of the original concentration in each tube. All tubes were incubated at 35° C. overnight. […]
# Antibiotic activity, measured as MIC in μg/mL, of natural Mangrolide A and a synthetic Mangrolide A O-methyl ether derivative were compared against the following Gram-negative microbial pathogens: Burkholderia cenocepacia J2315, Burkholderia cenocepacia, Pseudomonas aeruginosa PAO1, Acinetobacter Baumannii BAA-1793, Acinetobacter baumannii BAA-1605, Escherichia coli (EHEC), and Klebsiella pneumoniae.
# Staphyloccus aureus = test: Minimal Inhibitory Concentration (MIC) test; type: cell-based; conditions: Gram positive
# [5] = tested on: A1408G (S30) mutant bacteria; test: Growth of wild type or A1408G (S30) mutant bacteria in the presence of Mangrolide A; type: cell-based; conditions: grown with or without Mangrolide A, compared with wild type
# Experimental: as §1
smiles,measurement,setting,value
"CC[C@H]1/C=C(\C)[C@@H](O)C/C=C/C=C(\CO)C(=O)O[C@H](C(C)C)C/C=C(C)/C=C(\C)[C@@H]1O[C@@H]1O[C@H](C)[C@@H](O[C@@H]2O[C@H](C)[C@@H](OC)[C@H](O)[C@H]2OC)[C@H](N(C)C)[C@H]1O [Mangrolide A, mangrolide A]",misincorporation of amino acids with A1408G mutant,[1],limited misincorporation was induced
same,MIC,Bacillus subtillis,> 32 µg/mL
same,misincorporation of amino acids during protein synthesis,[2],increased misincorporation of amino acids
same,misincorporation of amino acids during protein synthesis,[2]; listed as mangrolide,induces misincorporation of amino acids
same,antibiotic activity against E. coli expressing NPT,[3],inactivated by the expressed neomycin phosphotransferase-1 activity
same,antibiotic activity against E. coli expressing NPT,[3]; listed as mangrolide,inactivated by neomycin phosphotransferase-1
same,translational error frequency in E. coli expressing NPT,[3]; grown in the presence of Mangrolide A,error frequency comparable to wild type E. coli
same,antibiotic potency compared with the Mangrolide A O-methyl ether derivative,[4]; all Gram-negative bacteria tested,more potent antibiotic against all Gram-negative bacteria tested
same,MIC range,[4]; range over the Gram-negative bacterial pathogens tested,0.25 to 1 µg/mL
same,MIC,Staphyloccus aureus,32 µg/mL
same,susceptibility of A1408G mutant bacteria (growth),[5],A1408G mutant is resistant
same,susceptibility of A1408G mutant bacteria (growth),[5]; listed as mangrolide,"A1408G mutant strain was able to grow on plates with mangrolide, unlike the wildtype"
